Where a SMILES comes first, the peptide text is derived from it. Bridges are numbered along the chain shown (N, C = ends). [ ]: non-standard residue; d: D form. The star is where a group is joined. hPhe(3-Cl-4-CF3) = N[C@@H](CCc1ccc(C(F)(F)F)c(Cl)c1)C(=O)O; NEtPhe(4-CF3) = CCN[C@@H](Cc1ccc(C(F)(F)F)cc1)C(=O)O; NMeGly(cPent) = CN[C@H](C(=O)O)C1CCCC1; NMeD = CN[C@@H](CC(=O)O)C(=O)O; NMeL = CN[C@@H](CC(C)C)C(=O)O; Morpholide = C1CN(*)CCO1; Ac3c = NC1(C(=O)O)CC1; Sar = CNCC(=O)O
Tests used:
[1] = biological target: GDP-bound HRAS wild-type protein (Homo sapiens, UniProt P01112); assay: Binding to HRAS by surface plasmon resonance (SPR), Single Cycle Kinetics; settings: for HRAS/KRAS (ratio of KD value with respect to HRAS to KD value with respect to KRAS): GDP-bound HRAS wild-type vs GDP-bound KRAS wild-type
GDP-bound HRAS wild-type protein, sequence (P01112 whole entry): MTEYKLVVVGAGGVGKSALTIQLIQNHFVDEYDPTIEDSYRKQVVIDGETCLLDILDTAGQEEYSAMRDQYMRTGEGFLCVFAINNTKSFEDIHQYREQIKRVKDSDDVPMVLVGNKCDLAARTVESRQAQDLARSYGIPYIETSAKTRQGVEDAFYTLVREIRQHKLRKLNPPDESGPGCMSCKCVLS

[2] = biological target: GDP-bound NRAS wild-type protein (Homo sapiens, UniProt P01111); assay: Binding to NRAS by surface plasmon resonance (SPR), Single Cycle Kinetics; settings: for NRAS/KRAS (ratio of KD value with respect to NRAS to KD value with respect to KRAS): GDP-bound NRAS wild-type vs GDP-bound KRAS wild-type
GDP-bound NRAS wild-type protein, sequence (P01111 whole entry): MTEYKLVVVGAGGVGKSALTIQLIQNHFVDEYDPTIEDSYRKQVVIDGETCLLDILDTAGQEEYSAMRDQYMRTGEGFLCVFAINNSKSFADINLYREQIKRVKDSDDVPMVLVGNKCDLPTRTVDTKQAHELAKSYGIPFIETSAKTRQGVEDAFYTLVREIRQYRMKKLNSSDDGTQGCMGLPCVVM

[3] = KD ratio HRAS/KRAS, class symbols
[4] = KD ratio NRAS/KRAS, class symbols

Q: How did the “HRAS/KRAS (ratio of KD for GDP-bound HRAS wild-type to KD for KRAS)” value ([1]; KD ratio HRAS/KRAS, SPR) turn out when CC[C@H](C)[C@@H]1NC(=O)[C@H](CC(C)C)N(C)C(=O)C[C@@H](C(=O)N2CCOCC2)N(C)C(=O)[C@H](C2CCCC2)N(C)C(=O)C2(CC2)NC(=O)[C@@H]2CCCN2C(=O)[C@H](CCc2ccc(C(F)(F)F)c(Cl)c2)NC(=O)CN(C)C(=O)[C@H](Cc2ccc(C(F)(F)F)cc2)N(CC)C(=O)CN(C)C(=O)CN(C)C1=O [PP0234] ([NMeL]I[Sar][Sar][NEtPhe(4-CF3)][Sar][hPhe(3-Cl-4-CF3)]P[Ac3c][NMeGly(cPent)][NMeD]-Morpholide; lactam N-11) was run?
A: C (A compound having a KD ratio of 0.1 or more and less than 3 is denoted as C)

Q: And the “NRAS/KRAS (ratio of KD for GDP-bound NRAS wild-type to KD for KRAS)” value ([2]; KD ratio NRAS/KRAS, SPR)?
A: B (a compound having 3 or more and less than 10 is denoted as B)

Q: How did the “HRAS/KRAS (ratio of KD value with respect to HRAS to KD value with respect to KRAS)” value ([1]; KD ratio, SPR) turn out when CCO[C@H]1CCN2C(=O)[C@H](CCc3cc(F)c(C(F)(F)F)c(F)c3)NC(=O)CN(C)C(=O)[C@H](Cc3ccc(C(F)(F)F)cc3)N3CCCCC[C@@H](C3=O)N(C)C(=O)CN(C)C(=O)[C@H]([C@@H](C)CC)NC(=O)[C@H](CC(C)C)N(C)C(=O)C[C@@H](C(=O)N3CCOCC3)N(C)C(=O)[C@H](C3CCCC3)N(C)C(=O)C3(CCC3)NC(=O)[C@H]12 [PP1068] was run?
A: B (a compound having 3 or more and less than 10 is denoted as B)

Q: And the “NRAS/KRAS (ratio of KD value with respect to NRAS to KD value with respect to KRAS)” value ([2]; KD ratio, SPR)?
A: A (a compound having 10 or more and less than 20 is denoted as A)

Q: For CCCOC[C@H]1C(=O)N[C@@H]([C@@H](C)CC)C(=O)N(C)CC(=O)N(C)[C@H]2C/C=C\CCN(C2=O)[C@@H](Cc2ccc(C)cc2)C(=O)N(C)CC(=O)N[C@@H](CCc2ccc(Cl)c(Cl)c2)C(=O)N2C[C@H](OCC)C[C@H]2C(=O)NC2(CC(C)(C)C2)C(=O)N(C)[C@@H](CC(C)(C)C)C(=O)N(C)[C@H](C(=O)N(C)C)CC(=O)N1C [PP2716], which “HRAS/KRAS (ratio of KD value with respect to GDP-bound HRAS wild-type protein to KD value with respect to KRAS)” value [1, 3] is on record?
A: A (a compound having 10 or more and less than 20 is denoted as A)

Q: What about the “NRAS/KRAS (ratio of KD value with respect to GDP-bound NRAS wild-type protein to KD value with respect to KRAS)” value [2, 4] of the same compound?
A: A (a compound having 10 or more and less than 20 is denoted as A)

Q: Which results are given for CCO[C@@H]1C[C@H]2C(=O)NC3(CC(C)(C)C3)C(=O)N(C)[C@@H](C(CC)CC)C(=O)N(C)[C@H](C(=O)N(C)C)CC(=O)N(C)[C@@H](CC(C)C)C(=O)N[C@@H]([C@@H](C)CC)C(=O)N(C)CC(=O)N(C)[C@H]3C/C=C\CCN(C3=O)[C@@H](Cc3ccc(C(F)(F)F)cc3)C(=O)N(C)CC(=O)N[C@@H](CCc3cc(F)c(C(F)(F)F)c(F)c3)C(=O)N2C1 [PP2127]?
A: HRAS/KRAS (ratio of KD value with respect to HRAS to KD value with respect to KRAS) ([1]; SPR): A (a compound having 10 or more and less than 20 is denoted as A); NRAS/KRAS (ratio of KD value with respect to NRAS to KD value with respect to KRAS) ([2]; SPR): AA (a compound having 20 or more is denoted as AA)

Q: With CCC(CC)[C@H]1C(=O)N(C)[C@H](C(=O)N(C)C)CC(=O)N(C)[C@@H](COC)C(=O)N[C@@H]([C@@H](C)CC)C(=O)N(C2CC2)CC(=O)N(C)[C@H]2C/C=C\CCN(C2=O)[C@@H](CC2CCC(F)(F)CC2)C(=O)N(C)CC(=O)N[C@@H](CCc2cc(F)c(C(F)(F)F)c(F)c2)C(=O)N2C[C@H](OC3CCC3)C[C@H]2C(=O)NC2(CC(C)(C)C2)C(=O)N1C [PP2615] as the compound, how does the “HRAS/KRAS (ratio of KD value with respect to GDP-bound HRAS wild-type protein to KD value with respect to KRAS)” value [1, 3] read?
A: A (a compound having 10 or more and less than 20 is denoted as A)

Q: What about the “NRAS/KRAS (ratio of KD value with respect to GDP-bound NRAS wild-type protein to KD value with respect to KRAS)” value [2, 4] of the same compound?
A: A (a compound having 10 or more and less than 20 is denoted as A)

Q: Which “HRAS/KRAS (ratio of KD value with respect to GDP-bound HRAS wild-type protein to KD value with respect to KRAS)” value [1, 3] does the source give for CCO[C@@H]1C[C@H]2C(=O)NC3(CCC3)C(=O)N(C)[C@@H](C3CCCC3)C(=O)N(C)[C@H](C(=O)N(C)C)CC(=O)N(C)[C@@H](CC3CCCC3)C(=O)N[C@@H]([C@@H](C)CC)C(=O)N(C)CC(=O)N(C)[C@H]3C/C=C\CCN(C3=O)[C@@H](Cc3ccc(C)cc3)C(=O)N(C)CC(=O)N[C@@H](CCc3cc(C)c(C(F)F)c(Cl)c3)C(=O)N2C1 [PP2677] here?
A: A (a compound having 10 or more and less than 20 is denoted as A)

Q: And the “NRAS/KRAS (ratio of KD value with respect to GDP-bound NRAS wild-type protein to KD value with respect to KRAS)” value [2, 4]?
A: A (a compound having 10 or more and less than 20 is denoted as A)

Q: CC[C@H](C)[C@@H]1NC(=O)[C@H](CC(C)C)N(C)C(=O)C[C@@H](C(=O)N2CCOCC2)N(C)C(=O)[C@H](C2CCCC2)N(C)C(=O)C2(CCCC2)NC(=O)[C@@H]2C[C@H](O)CN2C(=O)[C@H](CCc2cc(F)c(C(F)(F)F)c(F)c2)NC(=O)CN(C)C(=O)[C@H](Cc2ccc(C(F)(F)F)cc2)N2CCCC[C@@H](C2=O)N(C)C(=O)CN(C)C1=O [PP0556] was tested. Which “HRAS/KRAS (ratio of KD value with respect to GDP-bound HRAS wild-type protein to KD value with respect to KRAS)” value ([1]; KD ratio HRAS/KRAS, SPR) did it give?
A: B (a compound having 3 or more and less than 10 is denoted as B)

Q: And the “NRAS/KRAS (ratio of KD value with respect to GDP-bound NRAS wild-type protein to KD value with respect to KRAS)” value ([2]; KD ratio NRAS/KRAS, SPR)?
A: C (A compound having a KD ratio of 0.1 or more and less than 3 is denoted as C)
